The values that follow come from patent publication US10987357B2, “Aerosolized fluoroquinolones and uses thereof” (Horizon Orphan, LLC, priority 2005, dated 2021).

For series [1] the following is noted: in vivo. Here is the method: In the second test, the tolerability and taste of a small aerosol sample from a 0.5 ml aliquot of the test formulation was determined in a single healthy human volunteer, following nebulization in a PARI eFlow nebulizer (Table 12).
The tolerability and taste of the drug during a very brief administration period and for a period of 10 minutes post administration were monitored. Tolerability parameters were of the following types: (i) cough, cough sensation, or sneezing (ii) irritation, burning or tightness of throat, (ii) irritation or runniness in nasal passages or eyes, (iii) irritation, burning or tightness of the lungs or shortness of breadth, and (iv) dizziness, headache, nausea or other systemic effects.

The conditions of series [2]: in vivo; cited from earlier work.
The test system of series [3] is Streptococcus pneumonia (Sp). As to conditions: Table 6; cited from earlier work.
The test system of the next series is MSSA. As to conditions: Table 6; cited from earlier work.
For series [4], the system named is methicillin resistant Staphylococcus aureus (MRSA). The note with it: Table 6; cited from earlier work.
In series [5] the test system is Pseudomonas aeruginosa (Pa). The note with it: cited from earlier work.
For series [6] the following is noted: in vivo; cited from earlier work. This is another data set of the same source.
For series [7] the following is noted: 750 mg oral dose; cited from earlier work.
Series [8] relates to P. aeruginosa strain PAM 1723. Kind of series: Mouse lung infection efficacy model. As to conditions: Pseudomonas aeruginosa, PAM1723, in Mus musculus.
Description: The inoculum is adjusted to ca. 5×10^6 CFU/ml by correlation of absorbance at 600 nm with predetermined plate counts. […] On day 5, mice are infected by an intratracheal instillation of 0.05 ml of inoculum while under isoflurane anesthesia (5% isoflurane in oxygen running at 4 L/min). […] Mice are sacrificed 1 and 4 hours after treatment, their lungs removed, homogenized and plated to determine colony counts.
Series [9] can be described thus: Gemifloxacin formulations with organic bases: pH and osmolality. In kind it is physicochemical. The note with it: before pH adjustment.
From the text: (§1) It was filtered through a 0.45 micron filter.
as §1, §1, §1, §1

The conditions of series [10]: cited from earlier work.

Values joined by “and” are separate entries in the source; they are usually repeats but may differ in a detail not shown here. Identical values can stand only once. Counter-ions that a name gives are not always drawn. Like-named read-outs stand apart in the source and are kept apart here.

Turning to `CC1COc2c(N3CCN(C)CC3)c(F)cc3c(=O)c(C(=O)O)cn1c23` (racemic) [Ofloxacin], the “Aerosol Tolerability and Taste” value in [1] was “bitter chemical taste, mild cough sensation”. In series [2], the distribution into sputum was 79%.

Regarding `O=C(O)c1cn(C2CC2)c2cc(N3CCNCC3)c(F)cc2c1=O` [Ciprofloxacin], the “Aerosol Tolerability and Taste” value in series [1] is reported as “very strong, bitter unpleasant”. Besides, the “SP MIC90” value in series [3] was 2 µg/mL. Also, the “MSSA MIC90” value in the series with MSSA is 1 µg/mL. Further, the “MRSA MIC90” value in series [4] is 64 µg/mL. Further, in [5] (Table 6), the “Pa MIC90” value is 8 µg/mL. For the same compound, the “rank of potency against Pa” value in series [5] was “most potent”. Also, in series [6], the “penetration into lung tissues” value is given as “much less efficiently than levofloxacin”. In addition, in series [7], the “peak concentration, serum” value was about 4.2 µg/mL. Besides, the “time of peak drug concentration, serum” value in series [7] was 1.5 h. The log reduction at 25 mg/kg in series [8] (1 h, read-out: DeltaLOG CPU 1 hr, route IT, dose 25 mg/kg, 1 hr post-drug administration) worked out at 2.32; in [8] (4 h, read-out: DeltaLOG CPU 4 hr, route IT, dose 25 mg/kg, 4 hr post-drug administration), 1.45; in series [8] (ip, 1 h, read-out: DeltaLOG CPU 1 hr, route IP, dose 25 mg/kg, 1 hr post-drug administration), 1.59; in [8] (ip, 4 h, read-out: DeltaLOG CPU 4 hr, route IP, dose 25 mg/kg, 4 hr post-drug administration), 0.41.

Take `CO/N=C1\CN(c2nc3c(cc2F)c(=O)c(C(=O)O)cn3C2CC2)CC1CN` (centres unmarked) [Gemifloxacin mesylate]: in series [9], the “pH of filtered solution in water” value was 4.28 and 4.21 and 4.40 and 4.32 and 4.20.

Regarding `CCC(=O)O[C@H]1[C@H](O[C@@H]2[C@@H](C)[C@H](O[C@H]3C[C@@](C)(OC)[C@@H](O)[C@H](C)O3)[C@@H](C)C(=O)O[C@H](CC)[C@@](C)(O)[C@H](O)[C@@H](C)C(=O)[C@H](C)C[C@@]2(C)O)O[C@H](C)C[C@@H]1N(C)C` [erythromycin estolate], in series [10], the “solubility as fraction of that of the free base” value is listed as “approximately 1/12”.
